# Experimental data as given in publication PMC11576293, “New series of 4,6-diaryl pyrimidines: facile synthesis and antiproliferative activity as dual EGFR/VEGFR-2 inhibitors” (Frontiers in Chemistry, 2024).
# Assays:
# UACC-257 = test: NCI-60 single-dose screen; format: cell-based; settings: Homo sapiens, single dose 10 µM, '-' = no inhibition, read-out: % Growth Inhibition
# Procedure, shortened: (§1)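 Single concentration of 10 μM applied to every line of the 60-cell-line NCI panel. Testing performed by NCI DTP.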
# NCI-H23 = test: NCI-60 single-dose screen; format: cell-based; settings: Homo sapiens, single dose 10 µM, '-' = no inhibition, read-out: % Growth Inhibition
# Procedure, shortened: as §1
# MCF7 = test: NCI-60 single-dose screen; format: cell-based; settings: Homo sapiens, single dose 10 µM, '-' = no inhibition, read-out: % Growth Inhibition
# Procedure, shortened: as §1
# M14 = test: NCI-60 single-dose screen; format: cell-based; settings: Homo sapiens, single dose 10 µM, '-' = no inhibition, read-out: % Growth Inhibition
# Procedure, shortened: as §1
# ACHN 1 = test: NCI-60 single-dose screen; format: cell-based; settings: Homo sapiens, single dose 10 µM, '-' = no inhibition, read-out: % Growth Inhibition
# Procedure, shortened: as §1
# UO-31 = test: NCI-60 single-dose screen; format: cell-based; settings: Homo sapiens, single dose 10 µM, '-' = no inhibition, read-out: % Growth Inhibition
# Procedure, shortened: as §1
# MOLT-4 = test: NCI-60 single-dose screen; format: cell-based; settings: Homo sapiens, single dose 10 µM, '-' = no inhibition, read-out: % Growth Inhibition
# Procedure, shortened: as §1
# SK-MEL-2 = test: NCI-60 single-dose screen; format: cell-based; settings: Homo sapiens, single dose 10 µM, '-' = no inhibition, read-out: % Growth Inhibition
# Procedure, shortened: as §1
# PC-3 = test: NCI-60 single-dose screen; format: cell-based; settings: Homo sapiens, single dose 10 µM, '-' = no inhibition, read-out: % Growth Inhibition
# Procedure, shortened: as §1
# OVCAR-8 = test: NCI-60 single-dose screen; format: cell-based; settings: Homo sapiens, single dose 10 µM, '-' = no inhibition, read-out: % Growth Inhibition
# Procedure, shortened: as §1
# K-562 = test: NCI-60 single-dose screen; format: cell-based; settings: Homo sapiens, K562, single dose 10 µM, '-' = no inhibition, read-out: % Growth Inhibition
# Procedure, shortened: as §1
# BT-549 = test: NCI-60 single-dose screen; format: cell-based; settings: Homo sapiens, single dose 10 µM, '-' = no inhibition, read-out: % Growth Inhibition
# Procedure, shortened: as §1
# MDA-MB-468 = test: NCI-60 single-dose screen; format: cell-based; settings: Homo sapiens, single dose 10 µM, '-' = no inhibition, read-out: % Growth Inhibition
# Procedure, shortened: as §1
# TK-10 = test: NCI-60 single-dose screen; format: cell-based; settings: Homo sapiens, single dose 10 µM, '-' = no inhibition, read-out: % Growth Inhibition
# Procedure, shortened: as §1
# IGROV1 = test: NCI-60 single-dose screen; format: cell-based; settings: Homo sapiens, IGROV-1, single dose 10 µM, '-' = no inhibition, read-out: % Growth Inhibition
# Procedure, shortened: as §1
# EKVX = test: NCI-60 single-dose screen; format: cell-based; settings: Homo sapiens, single dose 10 µM, '-' = no inhibition, read-out: % Growth Inhibition
# Procedure, shortened: as §1
# HCC-2998 = test: NCI-60 single-dose screen; format: cell-based; settings: Homo sapiens, single dose 10 µM, '-' = no inhibition, read-out: % Growth Inhibition
# Procedure, shortened: as §1
# SK-OV-3 = test: NCI-60 single-dose screen; format: cell-based; settings: Homo sapiens, single dose 10 µM, '-' = no inhibition, read-out: % Growth Inhibition
# Procedure, shortened: as §1
# MDA-MB-435 = test: NCI-60 single-dose screen; format: cell-based; settings: Homo sapiens, single dose 10 µM, '-' = no inhibition, read-out: % Growth Inhibition
# Procedure, shortened: as §1
# CAKI-1 = test: NCI-60 single-dose screen; format: cell-based; settings: Homo sapiens, single dose 10 µM, '-' = no inhibition, read-out: % Growth Inhibition
# Procedure, shortened: as §1
# RPMI-8226 = test: NCI-60 single-dose screen; format: cell-based; settings: Homo sapiens, single dose 10 µM, '-' = no inhibition, read-out: % Growth Inhibition
# Procedure, shortened: as §1
# SK-MEL-28 = test: NCI-60 single-dose screen; format: cell-based; settings: Homo sapiens, single dose 10 µM, '-' = no inhibition, read-out: % Growth Inhibition
# Procedure, shortened: as §1
# UACC-62 = test: NCI-60 single-dose screen; format: cell-based; settings: Homo sapiens, single dose 10 µM, '-' = no inhibition, read-out: % Growth Inhibition
# Procedure, shortened: as §1
# HL-60(TB) = test: NCI-60 single-dose screen; format: cell-based; settings: Homo sapiens, single dose 10 µM, '-' = no inhibition, read-out: % Growth Inhibition
# SF-295 = test: NCI-60 single-dose screen; format: cell-based; settings: Homo sapiens, single dose 10 µM, '-' = no inhibition, read-out: % Growth Inhibition
# Procedure, shortened: as §1
# NCI-H460 = test: NCI-60 single-dose screen; format: cell-based; settings: Homo sapiens, single dose 10 µM, '-' = no inhibition, read-out: % Growth Inhibition
# Procedure, shortened: as §1
# MALME-3M = test: NCI-60 single-dose screen; format: cell-based; settings: Homo sapiens, single dose 10 µM, '-' = no inhibition, read-out: % Growth Inhibition
# Procedure, shortened: as §1
# HT29 = test: NCI-60 single-dose screen; format: cell-based; settings: Homo sapiens, HT-29, single dose 10 µM, '-' = no inhibition, read-out: % Growth Inhibition
# Procedure, shortened: as §1
# A498 = test: NCI-60 single-dose screen; format: cell-based; settings: Homo sapiens, single dose 10 µM, '-' = no inhibition, read-out: % Growth Inhibition
# Procedure, shortened: as §1
# NCI-H522 = test: NCI-60 single-dose screen; format: cell-based; settings: Homo sapiens, single dose 10 µM, '-' = no inhibition, read-out: % Growth Inhibition
# Procedure, shortened: as §1
# NCI-H322M = test: NCI-60 single-dose screen; format: cell-based; settings: Homo sapiens, single dose 10 µM, '-' = no inhibition, read-out: % Growth Inhibition
# Procedure, shortened: as §1
# HCT-15 = test: NCI-60 single-dose screen; format: cell-based; settings: Homo sapiens, single dose 10 µM, '-' = no inhibition, read-out: % Growth Inhibition
# Procedure, shortened: as §1
# OVCAR-3 = test: NCI-60 single-dose screen; format: cell-based; settings: Homo sapiens, single dose 10 µM, '-' = no inhibition, read-out: % Growth Inhibition
# Procedure, shortened: as §1
# SN12C = test: NCI-60 single-dose screen; format: cell-based; settings: Homo sapiens, single dose 10 µM, '-' = no inhibition, read-out: % Growth Inhibition
# Procedure, shortened: as §1
# KM12 = test: NCI-60 single-dose screen; format: cell-based; settings: Homo sapiens, single dose 10 µM, '-' = no inhibition, read-out: % Growth Inhibition
# Procedure, shortened: as §1
# MDA-MB231/ATCC = test: NCI-60 single-dose screen; format: cell-based; settings: Homo sapiens, MDA-MB-231, single dose 10 µM, '-' = no inhibition, read-out: % Growth Inhibition
# Procedure, shortened: as §1
# NCI/ADR-RES = test: NCI-60 single-dose screen; format: cell-based; settings: Homo sapiens, single dose 10 µM, '-' = no inhibition, read-out: % Growth Inhibition
# Procedure, shortened: as §1
# SF-268 = test: NCI-60 single-dose screen; format: cell-based; settings: Homo sapiens, single dose 10 µM, '-' = no inhibition, read-out: % Growth Inhibition
# Procedure, shortened: as §1
# SW-620 = test: NCI-60 single-dose screen; format: cell-based; settings: Homo sapiens, single dose 10 µM, '-' = no inhibition, read-out: % Growth Inhibition
# Procedure, shortened: as §1
# SF-539 = test: NCI-60 single-dose screen; format: cell-based; settings: Homo sapiens, single dose 10 µM, '-' = no inhibition, read-out: % Growth Inhibition
# Procedure, shortened: as §1
# SNB-19 = test: NCI-60 single-dose screen; format: cell-based; settings: Homo sapiens, single dose 10 µM, '-' = no inhibition, read-out: % Growth Inhibition
# Procedure, shortened: as §1
# LOX IMVI = test: NCI-60 single-dose screen; format: cell-based; settings: Homo sapiens, single dose 10 µM, '-' = no inhibition, read-out: % Growth Inhibition
# Procedure, shortened: as §1
# SR = test: NCI-60 single-dose screen; format: cell-based; settings: Homo sapiens, single dose 10 µM, '-' = no inhibition, read-out: % Growth Inhibition
# Procedure, shortened: as §1
# SNB-75 = test: NCI-60 single-dose screen; format: cell-based; settings: Homo sapiens, single dose 10 µM, '-' = no inhibition, read-out: % Growth Inhibition
# Procedure, shortened: as §1
# DU-145 = test: NCI-60 single-dose screen; format: cell-based; settings: Homo sapiens, single dose 10 µM, '-' = no inhibition, read-out: % Growth Inhibition
# Procedure, shortened: as §1
# RXF 393 = test: NCI-60 single-dose screen; format: cell-based; settings: Homo sapiens, single dose 10 µM, '-' = no inhibition, read-out: % Growth Inhibition
# Procedure, shortened: as §1
# CCRF-CEM = test: NCI-60 single-dose screen; format: cell-based; settings: Homo sapiens, single dose 10 µM, '-' = no inhibition, read-out: % Growth Inhibition
# Procedure, shortened: as §1
compound,measurement,setting,value
"C=CCSc1nc(-c2ccc(Cl)cc2)cc(-c2ccc(OC)cc2)n1 [Compound 13, 2-(Allylthio)-4-(4-chlorophenyl)-6-(4-methoxyphenyl)pyrimidine]",inhibition at 10 µM,UACC-257,< 0%
same,inhibition at 10 µM,NCI-H23,3.36%
same,inhibition at 10 µM,MCF7,< 0%
same,inhibition at 10 µM,M14,4.04%
same,inhibition at 10 µM,ACHN 1,< 0%
same,inhibition at 10 µM,UO-31,18.9%
same,inhibition at 10 µM,MOLT-4,14.3%
same,inhibition at 10 µM,SK-MEL-2,4.96%
same,inhibition at 10 µM,PC-3,1.15%
same,inhibition at 10 µM,OVCAR-8,< 0%
same,inhibition at 10 µM,K-562,15.6%
same,inhibition at 10 µM,BT-549,< 0%
same,inhibition at 10 µM,MDA-MB-468,16.2%
same,inhibition at 10 µM,TK-10,< 0%
same,inhibition at 10 µM,IGROV1,< 0%
same,inhibition at 10 µM,EKVX,2.11%
same,inhibition at 10 µM,HCC-2998,< 0%
same,inhibition at 10 µM,SK-OV-3,< 0%
same,inhibition at 10 µM,MDA-MB-435,5.34%
same,inhibition at 10 µM,CAKI-1,14.8%
same,inhibition at 10 µM,RPMI-8226,4.91%
same,inhibition at 10 µM,SK-MEL-28,< 0%
same,inhibition at 10 µM,UACC-62,26.2%
same,inhibition at 10 µM,HL-60(TB),26.8%
same,inhibition at 10 µM,SF-295,1.47%
same,inhibition at 10 µM,NCI-H460,0.1%
same,inhibition at 10 µM,MALME-3M,< 0%
same,inhibition at 10 µM,HT29,17.2%
same,inhibition at 10 µM,A498,< 0%
same,inhibition at 10 µM,NCI-H522,10.2%
same,inhibition at 10 µM,NCI-H322M,0.59%
same,inhibition at 10 µM,HCT-15,7.93%
same,inhibition at 10 µM,OVCAR-3,< 0%
same,inhibition at 10 µM,SN12C,6.62%
same,inhibition at 10 µM,KM12,0.8%
same,inhibition at 10 µM,MDA-MB231/ATCC,< 0%
same,inhibition at 10 µM,NCI/ADR-RES,6.28%
same,inhibition at 10 µM,SF-268,< 0%
same,inhibition at 10 µM,SW-620,< 0%
same,inhibition at 10 µM,SF-539,< 0%
same,inhibition at 10 µM,SNB-19,6.79%
same,inhibition at 10 µM,LOX IMVI,4.72%
same,inhibition at 10 µM,SR,19.9%
same,inhibition at 10 µM,SNB-75,< 0%
same,inhibition at 10 µM,DU-145,1.02%
same,inhibition at 10 µM,RXF 393,0.35%
same,inhibition at 10 µM,CCRF-CEM,3.79%
same,melting point,,245 to 247 °C
